Drawing on patent US12404285B2, “KRAS G12D proteolysis targeting chimeras” (PAQ Therapeutics Inc., priority 2022, dated 2025), this text covers DC50 for twelve compounds.

The target in the assay is T1, KRAS in AGS cells (KRAS G12D mutant cell line) or LS180 cells (KRAS G12D mutant cell line) (Homo sapiens, UniProt P01116, G12D).
T1 construct: CRL-187 (LS180) (so in the source); host or cells: AGS or LS180 cells
T1 sequence (P01116 1-188 isoform P01116-2 G12D): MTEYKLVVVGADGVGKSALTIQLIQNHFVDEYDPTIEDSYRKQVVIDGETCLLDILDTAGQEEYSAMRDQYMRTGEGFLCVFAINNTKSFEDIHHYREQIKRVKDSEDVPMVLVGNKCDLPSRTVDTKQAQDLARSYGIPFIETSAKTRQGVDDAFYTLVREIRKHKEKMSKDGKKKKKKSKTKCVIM
Nature of the assay: KRAS Western Blot (WB) assay. The assay is classed as cell-based. Conditions: KRAS degradation, 24 hours incubation, normalized to β-actin. Here is the method:
Day 1. Seeded AGS cells (KRAS G12D mutant cell line, ATCC, CRL-1739) or LS180 cells (KRAS G12D mutant cell line, ATCC, CRL-187) into 6-well plates (cell density: 3×10^5 cells/well/2 ml medium) in Ham's F-12 medium (Invitrogen, 11765-054) or Eagle's Minimum Essential Medium (ATCC, 30-2003) and incubated overnight at 37° C. and 5% CO2.
Day 2. Aspirated 1 ml medium from each well and added 1 ml medium containing DMSO or test compound into the well to achieve the desired final concentration. Mixed well by gentle shaking and incubated for 24 hours.
Day 3. Aspirated media from plates; washed cells with 2 ml 4° C. PBS (Solarbio, P1020-500) and aspirated the PBS. Then added 100 μl 4° C. […] lysis buffer (Boston BioProducts BP-115D) with protease and phosphatase inhibitors at vendor recommended concentrations (Roche 05892791001 and 04906837001) into each well to lyse the cells, and incubated for 20 minutes at 4° C. Cell lysate was collected into 1.5 ml Eppendorf tube, and the lysate was sonicated at 4° C. for 2 minutes (5 second pulse at 30% power with 10 second intermissions). The lysate was centrifuged at 12,000 rpm for 15 minutes at 4° C. The supernatant was transferred to a fresh Eppendorf tube, and protein concentration was quantified using a BCA kit (Solarbio, PC0020-500). Mixed the cell lysate and 5×NuPAGE SDS Loading Buffer (Beyotime, P0015L), and heated at 95° C. for 10 minutes in a heat block. Prepared samples were stored at −80° C. until SDS-PAGE procedure.
Day 4. Loaded 15 μg protein from each sample onto NuPAGE® Novex 4-12% Bis-Tris Midi Gel, 26 W (Invitrogen, WG1403BOX) and ran the gel at 120V for 1.5 hours in 1×NuPAGE® MOPS SDS Running Buffer (Novex, NP0001). Electrotransferred to nitrocellulose membrane using dry transfer method (iBlot 2 Transfer Stacks, nitrocellulose, IB23001) with a program consisting of 20V for 1 minute, 23V for 4 minutes and 25V for 2 minutes. Blocked the membrane with 5% BSA (Solarbio, A8020) in 1×TBST (CST, 9997S) for 1 hour at room temperature. Incubated with KRAS antibody (LSBio, LS-C175665, clone 2C1) at 1:1000 dilution and β-actin antibody at 1:1000 dilution (CST, 4970S) in TBST containing 1% BSA (Solarbio, A8020) at 4° C. overnight.
Day 5. Washed nitrocellulose membrane three times with 1×TBST for 10 minutes each at room temperature. Incubated with fluorescently labeled secondary antibodies at 1:5000 dilution in TBST containing 1% BSA (anti-rabbit IgG, Licor, 926-32211; anti-mouse IgG, LI-COR, 926-68070) for 1 hour at room temperature. Washed membrane three times with TBST, 10 minutes each. Scanned the membrane on LiCOR scanner for fluorescent signal(s) and quantified KRAS bands and β-actin bands for normalization.
The data are reported in Table 2, wherein “A” indicates a DC50 of less than 1 μM; “B” indicates a DC50 of greater than or equal to 1 μM and less than 10 μM; and “C” indicates a DC50 of greater than or equal to 10 μM.
A general note: A western blot detects proteins with antibodies after separation by electrophoresis.
Regarding `C#Cc1c(F)ccc2cc(O)cc(-c3ncc4c(N5CC6CCC(C5)N6)nc(OC[C@@]56CCCN5[C@H](COC(=O)NCCCCCCCCCCCc5cccc7c5n(C)c(=O)n7C5CCC(=O)NC5=O)CC6)nc4c3F)c12` (stereo partly drawn) [Compound 011, [(3S,8S)-8-[[4-(3,8-diazabicyclo[3.2.1]octan-3-yl)-7-(8-ethynyl-7-fluoro-3-hydroxy-1-naphthyl)-8-fluoro-pyrido[4,3-d]pyrimidin-2-yl]oxymethyl]-1,2,3,5,6,7-hexahydropyrrolizin-3-yl]methylN-[11-[1-(2,6-dioxo-3-piperidyl)-3-methyl-2-oxo-benzimidazol-4-yl]undecyl]carbamate], the DC50 entry is recorded as “A (DC50 less than 1 μM)”.

Regarding `C#Cc1c(F)ccc2cc(O)cc(-c3ncc4c(N5CC6CCC(C5)N6)nc(OC[C@@]56CCCN5[C@H](COC(=O)NCCCCCCCCCc5cccc7c5n(C)c(=O)n7C5CCC(=O)NC5=O)CC6)nc4c3F)c12` (stereo partly drawn) [Compound 012], the DC50 entry is recorded as “A (DC50 less than 1 μM)”.

For `C#Cc1c(F)ccc2cc(O)cc(-c3ncc4c(N5C[C@H]6CC[C@@H](C5)N6)nc(OC[C@@]56CCCN5[C@H](COC(=O)NCCCCCCCCCCc5ccc7c(c5)n(C)c(=O)n7C5CCC(=O)NC5=O)CC6)nc4c3F)c12` (stereo partly drawn) [Compound 013, ((3S,7aS)-7a-(((4-((1R,5S)-3,8-diazabicyclo[3.2.1]octan-3-yl)-7-(8-ethynyl-7-fluoro-3-hydroxynaphthalen-1-yl)-8-fluoropyrido[4,3-d]pyrimidin-2-yl)oxy)methyl)hexahydro-1H-pyrrolizin-3-yl)methyl (10-(1-(2,6-dioxopiperidin-3-yl)-3-methyl-2-oxo-2,3-dihydro-1H-benzo[d]imidazol-5-yl)decyl) carbamate], the DC50 entry is “A (DC50 less than 1 μM)”.

Turning to `C#Cc1c(F)ccc2cc(O)cc(-c3ncc4c(N5CC6CCC(C5)N6)nc(OC[C@@]56CCCN5[C@H](COC(=O)NCCCCCCCCCCc5cccc7c5n(C)c(=O)n7C5CCC(=O)NC5=O)CC6)nc4c3F)c12` (stereo partly drawn) [Compound 014, [(3S,8S)-8-[[4-(3,8-diazabicyclo[3.2.1]octan-3-yl)-7-(8-ethynyl-7-fluoro-3-hydroxy-1-naphthyl)-8-fluoro-pyrido[4,3-d]pyrimidin-2-yl]oxymethyl]-1,2,3,5,6,7-hexahydropyrrolizin-3-yl]methyl N-[10-[1-(2,6-dioxo-3-piperidyl)-3-methyl-2-oxo-benzimidazol-4-yl]decyl]carbamate], the DC50 entry is “A (DC50 less than 1 μM)”.

Regarding `C#Cc1c(F)ccc2cc(O)cc(-c3ncc4c(N5CC6CCC(C5)N6)nc(OC[C@@]56CCCN5[C@H](COC(=O)NCCCCCCCCCCNc5ccc7c(c5)C(=O)N(C5CCC(=O)NC5=O)C7=O)CC6)nc4c3F)c12` (stereo partly drawn) [Compound 015, [(3S,8S)-8-[[4-(3,8-diazabicyclo[3.2.1]octan-3-yl)-7-(8-ethynyl-7-fluoro-3-hydroxy-1-naphthyl)-8-fluoro-pyrido[4,3-d]pyrimidin-2-yl]oxymethyl]-1,2,3,5,6,7-hexahydropyrrolizin-3-yl]methyl N-[10-[[2-(2,6-dioxo-3-piperidyl)-1,3-dioxo-isoindolin-5-yl]amino]decyl]carbamate], the DC50 entry was “A (DC50 less than 1 μM)”.

In the case of `C#Cc1c(F)ccc2cc(O)cc(-c3ncc4c(N5CC6CCC(C5)N6)nc(OC[C@@]56CCCN5[C@H](COC(=O)NCCCCCCCCCNc5cccc7c5C(=O)N(C5CCC(=O)NC5=O)C7=O)CC6)nc4c3F)c12` (stereo partly drawn) [Compound 016, ((3S,7aS)-7a-(((4-(3,8-diazabicyclo[3.2.1]octan-3-yl)-7-(8-ethynyl-7-fluoro-3-hydroxynaphthalen-1-yl)-8-fluoropyrido[4,3-d]pyrimidin-2-yl)oxy)methyl)hexahydro-1H-pyrrolizin-3-yl)methyl (9-((2-(2,6-dioxopiperidin-3-yl)-1,3-dioxoisoindolin-4-yl)amino)nonyl)carbamate], the DC50 result is given as “A (DC50 less than 1 μM)”.

In the case of `C#Cc1c(F)ccc2cc(O)cc(-c3ncc4c(N5CC6CCC(C5)N6)nc(OC[C@@]56CCCN5[C@H](COC(=O)NCCCCCCNc5ccc7c(c5)C(=O)N(C5CCC(=O)NC5=O)C7=O)CC6)nc4c3F)c12` (stereo partly drawn) [Compound 017, [(3S,8S)-8-[[4-(3,8-diazabicyclo[3.2.1]octan-3-yl)-7-(8-ethynyl-7-fluoro-3-hydroxy-1-naphthyl)-8-fluoro-pyrido[4,3-d]pyrimidin-2-yl]oxymethyl]-1,2,3,5,6,7-hexahydropyrrolizin-3-yl]methyl N-[6-[[2-(2,6-dioxo-3-piperidyl)-1,3-dioxo-isoindolin-5-yl]amino]hexyl]carbamate], the DC50 entry was “B (DC50 greater than or equal to 1 μM and less than 10 μM)”.

For the compound `C#Cc1c(F)ccc2cc(O)cc(-c3ncc4c(N5CC6CCC(C5)N6)nc(OC[C@@]56CCCN5[C@H](COC(=O)NCCCCCCCCNc5cccc7c5C(=O)N(C5CCC(=O)NC5=O)C7=O)CC6)nc4c3F)c12` (stereo partly drawn) [Compound 018], the DC50 result is “B (DC50 greater than or equal to 1 μM and less than 10 μM)”.

Regarding `C#Cc1c(F)ccc2cc(O)cc(-c3ncc4c(N5CC6CCC(C5)N6)nc(OC[C@@]56CCCN5[C@H](COC(=O)NCCCCNc5cccc7c5C(=O)N(C5CCC(=O)NC5=O)C7=O)CC6)nc4c3F)c12` (stereo partly drawn) [Compound 019, [(3S,8S)-8-[[4-(3,8-diazabicyclo[3.2.1]octan-3-yl)-7-(8-ethynyl-7-fluoro-3-hydroxy-1-naphthyl)-8-fluoro-pyrido[4,3-d]pyrimidin-2-yl]oxymethyl]-1,2,3,5,6,7-hexahydropyrrolizin-3-yl]methyl-N-[4-[[2-(2,6-dioxo-3-piperidyl)-1,3-dioxo-isoindolin-4-yl]amino]butyl]carbamate], the DC50 entry was “C (DC50 greater than or equal to 10 μM)”.

Turning to `C#Cc1c(F)ccc2cc(O)cc(-c3ncc4c(N5CC6CCC(C5)N6)nc(OC[C@@]56CCCN5[C@H](COC(=O)NCCCNc5cccc7c5C(=O)N(C5CCC(=O)NC5=O)C7=O)CC6)nc4c3F)c12` (stereo partly drawn) [Compound 020, [(3S,8S)-8-[[4-(3,8-diazabicyclo[3.2.1]octan-3-yl)-7-(8-ethynyl-7-fluoro-3-hydroxy-1-naphthyl)-8-fluoro-pyrido[4,3-d]pyrimidin-2-yl]oxymethyl]-1,2,3,5,6,7-hexahydropyrrolizin-3-yl]methylN-[3-[[2-(2,6-dioxo-3-piperidyl)-1,3-dioxo-isoindolin-4-yl]amino]propyl]carbamate], the DC50 entry was “C (DC50 greater than or equal to 10 μM)”.

Take `C#Cc1c(F)ccc2cc(O)cc(-c3ncc4c(N5CC6CCC(C5)N6)nc(OC[C@@]56CCCN5[C@H](COC(=O)NCCCCCCNc5cccc7c5C(=O)N(C5CCC(=O)NC5=O)C7=O)CC6)nc4c3F)c12` (stereo partly drawn) [Compound 021, [(3S,8S)-8-[[4-(3,8-diazabicyclo[3.2.1]octan-3-yl)-7-(8-ethynyl-7-fluoro-3-hydroxy-1-naphthyl)-8-fluoro-pyrido[4,3-d]pyrimidin-2-yl]oxymethyl]-1,2,3,5,6,7-hexahydropyrrolizin-3-yl]methylN-[6-[[2-(2,6-dioxo-3-piperidyl)-1,3-dioxo-isoindolin-4-yl]amino]hexyl]carbamate]: the DC50 entry was “B (DC50 greater than or equal to 1 μM and less than 10 μM)”.

As for `C#Cc1c(F)ccc2cc(O)cc(-c3ncc4c(N5CC6CCC(C5)N6)nc(OC[C@]56CCCN5[C@@H](COC(=O)NCCCCCCNc5cccc7c5C(=O)N(C5CCC(=O)NC5=O)C7=O)CC6)nc4c3F)c12` (stereo partly drawn) [Compound 022, [(3R,8R)-8-[[4-(3,8-diazabicyclo[3.2.1]octan-3-yl)-7-(8-ethynyl-7-fluoro-3-hydroxy-1-naphthyl)-8-fluoro-pyrido[4,3-d]pyrimidin-2-yl]oxymethyl]-1,2,3,5,6,7-hexahydropyrrolizin-3-yl]methyl N-[6-[[2-(2,6-dioxo-3-piperidyl)-1,3-dioxo-isoindolin-4-yl]amino]hexyl]carbamate], the DC50 entry is listed as “C (DC50 greater than or equal to 10 μM)”.
